Where a SMILES comes first, the peptide text is derived from it. The star is where a group is joined. Cbz = O=C(OCc1ccccc1)*
How the values were obtained:
[1] = target: T1, 20S proteasome CP-L activity (Oryctolagus cuniculus, UniProt A0A5F9DQW2); assay: In vitro proteasome activity assay, CP-L (Z-nLPnLD-AMC); format: biochemical, rabbit; details: purified 20S proteasome; highest concentration tested 25,000 nM
T1 construct: Purified rabbit 20S proteasome
Description: We initially determined the ability of the novel tripeptide MG132 analogues 1-6 and the macrocycles 3a and 4a to inhibit the three separate protease activities of the 20S proteasome (CT-L, -T-L and CP-L). The assays were performed in vitro using purified 20S proteasome/inhibitor mixtures, with the activity of each subunit of the proteasome assessed upon incubation with its respective target peptide. […] In addition, there is no apparent clear-cut preference for the length of tether (compare compounds 1 to 4), while the introduction of an aryl group at P3 (as in 6) is well tolerated.
Purified rabbit 20S proteasome and fluorogenic CT-L substrate (Suc-LLVY-AMC) were purchased from Boston Biochem (Cambridge, Mass., USA). The T-L and CP-L fluorogenic substrates (Ac-RLR-AMC and Z-nLPnLD-AMC) were purchased from Enzo Life Sciences (Farmingdale, N.Y., USA). The 20S proteasome was diluted to 0.2 μg/μL in 20S proteasome buffer (50 mM HEPES pH 7.6, 150 mM NaCl and 1 mM DDT) and stored at −80° C. Purified 20S proteasome (8 ng) was pre-incubated with the indicated concentrations of inhibitors for 15 minutes and subsequently added to the AMC-labeled substrate peptide (50 μM) in assay buffer (25 mM HEPES, pH 7.5, 0.5 mM EDTA, 0.05% NP-40, and 0.001% SDS (w/v)) at 37° C. for 2 hours. Fluorescent substrate cleavage by the 20S proteasome was linear during this incubation timeframe (Supplementary Figure S4. Hydrolysed 7-amino-4-methylcoumarin (AMC) was subsequently detected with the FLUOstar OPTIMA microplatefluorometer at excitation/emission of 390/460 nm. The activity was estimated in relative fluorescence units and half of the maximal inhibitory activity of the proteasome is represented by IC50 values. A minimum of three biological replicates were performed for each data point.

[2] = test system: TC-252 Ewing's sarcoma cells; assay: Cell viability assay (7AAD, 48 hours), TC-252; format: cell-based; details: 48 hours exposure; read-out: Cancer cell lines IC50 (μM) TC-252
Description: (§1) Cell viability assays were performed as previously described. Briefly, cells were seeded in 96 well microtiterplates at a density of 3×10^4 cells per well in the presence of the indicated chemical. Cells were harvested 48 hours post-treatment, centrifuged at 1,300×g, washed in phosphate-buffered saline (PBS) and stained with 7AAD solution (2 μg/mL) (7-amino-actinomycin-D, Invitrogen, Carlsbad, Calif.) for 10 mins at room temperature. Viable cells were determined with the use of a FACS Calibur flow cytometer (Becton Dickinson Immunocytometry Systems), and analyzed with the use of FLOWJO (Tree Star, Inc) and GraphPad Prism (GraphPad Software Inc).
WE-68 and VH-64 Ewing's sarcoma cells were kindly supplied by F. van Valen (Department of Orthopaedic Surgery, Westfalische-Wilhelms-University, Germany).TC-252 and STA-ET-1 Ewing's sarcoma cells were kindly provided by G. Hamilton (Department of Surgery, University of Vienna, Austria) or P. Ambros (Children's Cancer Research Institute, St Anna Children's Hospital, Vienna, Austria). Primary human embryonic fibroblasts or primary human osteoblasts were collected from the Women's and Children's Hospital (North Adelaide, South Australia, Australia) or Royal Adelaide Hospital with patient consent. Mouse Embryonic Fibroblasts (MEFs) and its p53-null derivative were kindly supplied by Guillermina Lozano (Department of Genetics, Anderson Cancer Centre, University of Texas, Houston, Tex., USA). WE-68 cell lines were grown in RPMI-1640 media, whilst human embryonic fibroblasts and MEFs were grown in Dulbecco's Modified Eagle's Medium (DMEM). Media was supplemented with 10% FCS, 1% PSG and 10 mM HEPES. All cells were maintained at 37° C. in a humidified atmosphere of 5% CO2.

[3] = test system: MEF p53-/- (mouse embryonic fibroblasts lacking p53); assay: Cell viability assay, MEF p53-/-; format: cell-based; details: for sensitivity of MEFs lacking p53 (p53-/-) to cytotoxic effects (in words): compared with p53+/+ MEFs
Text: Although proteasome inhibitors have been translated from the bench to the clinic over the past decade, their specific mechanisms of action remain poorly understood. As discussed earlier, proteasomal over-activity in tumor cells has been attributed to aberrant degradation of numerous critical cancer-related pro proteins, including the pro-apoptotic tumor suppressor, p53. However, the role of p53 as a downstream mediator of cell death in response to proteasomal inhibition remains unclear. Therefore, we used our small library of CT-L specific proteasome inhibitors (compounds 1-6) to determine the role of p53 in their mechanism of cytotoxic action. For this purpose, we utilized mouse embryonic fibroblasts (MEFs) from transgenic p53^+/+ and p53^−/− littermates. This isogenic pair of cell lines are either competent (MEF p53^+/+) or deficient (MEF p53^−/−) in p53 protein and are used here to assess a potential role for p53 as a downstream inducer of cell death in response to proteasomal inhibition.
as §1
WE-68 and VH-64 Ewing's sarcoma cells were kindly supplied by F. van Valen (Department of Orthopaedic Surgery, Westfalische-Wilhelms-University, Germany).TC-252 and STA-ET-1 Ewing's sarcoma cells were kindly provided by G. Hamilton (Department of Surgery, University of Vienna, Austria) or P. Ambros (Children's Cancer Research Institute, St Anna Children's Hospital, Vienna, Austria). […]

p53 protein = assay: Western blot analysis of p53 protein expression in MEF p53+/+; format: cell-based, mouse; details: MEFs p53+/+, 16 hours treatment
Description: Dose-response curves are provided in Supplementary Figure S3. Compound 1 was not assayed using this system.
Western blot analyses were performed as previously described. Briefly, cells were harvested and lysed in 50 mM Tris-HCl (pH 7.5), 250 mM NaCl, 1 mM EDTA, 50 mM NaF, 0.5% TritonX-10, 0.5 mM Na3VO4 and 1× […] inhibitor (Roche, Indianapolis, Ind., USA). Lysates were incubated on ice for 8 minutes and sonicated using a Vibra-Cell VCX130 (Sonics & Materials, Inc) at 25% amplitude for 10 seconds. Protein concentrations were assayed with the bicinchoninic acid assay (Thermo Scientific, Massachusetts, USA) and subsequently resolved using a 10% SDS-PAGE gel. Proteins were transferred onto a nitrocellulose membrane (Hybond-C Extra, Amersham Biosciences), blocked (10% milk/TBST; 30 mins), hybridized with the appropriate primary or HRP-conjugated secondary antibody and subsequently visualized using Enhanced Chemiluminescence (Amersham Biosciences).
Antibodies used included a mouse anti-β-actin (Sigma), anti-p53 (1C12-mouse specific) (Cell Signalling, Danvers, Mass., USA), sheep anti-mouse IgG-HRP (Amersham Biosciences, Piscataway, N.J., USA), or donkey anti-rabbit IgG-HRP (Amersham Biosciences).

T1 sequence (A0A5F9DQW2 1-212): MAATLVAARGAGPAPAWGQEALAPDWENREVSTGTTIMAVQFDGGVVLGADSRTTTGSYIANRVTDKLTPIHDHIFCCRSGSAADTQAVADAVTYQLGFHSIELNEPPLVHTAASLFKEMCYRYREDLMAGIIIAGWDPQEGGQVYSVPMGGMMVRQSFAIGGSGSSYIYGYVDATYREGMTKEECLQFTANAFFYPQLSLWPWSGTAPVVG

Row | Compound | IC50 [1] | IC50 [2] | sensitivity of MEFs lacking p53 (p53-/-) to cytotoxic effects (in words) [3] | IC50 ([3]; Mus musculus, Fibroblast, read-out: IC50 in MEF p53-/-) | p53 protein levels (p53 protein)
1 | C#CCOc1ccc(C[C@@H](C=O)NC(=O)[C@H](CC(C)C)NC(=O)[C@H](CCN=[N+]=[N-])NC(=O)OCc2ccccc2)cc1 [Compound 2] | > 25000 nM | 2.3 µM |  |  | 
2 | C#CCOc1ccc(C[C@@H](C=O)NC(=O)[C@H](CC(C)C)NC(=O)[C@H](CCCN=[N+]=[N-])NC(=O)OCc2ccccc2)cc1 [Compound 3] | > 25000 nM | 1.2 µM |  |  | 
3 | C#CCOc1ccc(C[C@@H](C=O)NC(=O)[C@H](CC(C)C)NC(=O)[C@H](CCCCN=[N+]=[N-])NC(=O)OCc2ccccc2)cc1 [Compound 4] | > 25000 nM | 1.6 µM |  |  | 
4 | C#CCOc1ccc(C[C@@H](C=O)NC(=O)[C@@H](NC(=O)[C@H](CCCCN=[N+]=[N-])NC(=O)OCc2ccccc2)[C@@H](C)CC)cc1 [Compound 5] | > 25000 nM | 0.42 µM | resistant |  | 
5 | C#CCOc1ccc(C[C@@H](C=O)NC(=O)[C@H](CC(C)C)NC(=O)[C@H](Cc2ccc(N=[N+]=[N-])cc2)NC(=O)OCc2ccccc2)cc1 [Compound 6] | > 25000 nM | 0.64 µM | resistant |  | 
6 | CC(C)C[C@@H](C=O)NC(=O)[C@H](CC(C)C)NC(=O)[C@H](CC(C)C)NC(=O)OCc1ccccc1 [MG132, reference compound] (Cbz-Leu-Leu-Leu-aldehyde) | 545 nM | 0.49 µM |  | 0.94 µM | increase p53 protein levels

Source: patent US20150299250A1, “MACROCYCLIC COMPOUNDS AND USES THEREOF” (ADELAIDE RESEARCH & INNOVATION PTY LTD, priority 2012, published 2015)
